In article PMC8478151 (European journal of pharmacology, 2021) one finds EC50 data, which are given here for one compound.

For the experiment, the target named is α7 nicotinic acetylcholine receptor (Homo sapiens, UniProt P36544). The class given is cell-based.

The structures appear in SMILES notation. Where a name gives a salt, the structure may show the parent alone.

Chain of α7 nicotinic acetylcholine receptor (P36544 23-502): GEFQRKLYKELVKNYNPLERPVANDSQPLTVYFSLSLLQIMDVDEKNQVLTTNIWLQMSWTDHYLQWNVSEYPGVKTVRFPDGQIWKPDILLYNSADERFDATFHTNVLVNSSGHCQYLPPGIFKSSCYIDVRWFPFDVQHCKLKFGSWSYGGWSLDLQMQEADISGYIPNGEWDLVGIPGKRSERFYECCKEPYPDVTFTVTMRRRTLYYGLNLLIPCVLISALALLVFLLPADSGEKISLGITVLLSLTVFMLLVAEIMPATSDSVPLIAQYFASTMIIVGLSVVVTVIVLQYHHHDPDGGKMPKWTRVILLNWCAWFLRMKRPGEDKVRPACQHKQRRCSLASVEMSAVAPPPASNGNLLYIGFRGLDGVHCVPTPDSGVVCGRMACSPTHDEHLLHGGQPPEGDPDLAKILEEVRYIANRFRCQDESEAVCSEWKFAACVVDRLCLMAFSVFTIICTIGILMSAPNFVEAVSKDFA

In general, EC50 refers to the concentration giving half of the maximal effect. Read a high EC50 as a need for much substance. `O=C(c1ccc(-c2cccc(C(F)(F)F)c2)o1)N1CCN2CCC1CC2` [NS6740, 1,4-diazabicyclo[3.2.2]nonan-4-yl(5-(3-(trifluoromethyl)-phenyl)-furan-2-yl)methanone hydrochloride] came in with an EC50 of 420 nM.
